Measured values reported in US4363805A, “Aminodesoxy-1.4;3.6-dianhydrohexitol nitrates and pharmaceutical composition” (Firma Willmar Schwabe, priority 1980, dated 1982).

Tests used:
[1] = system: isolated guinea pig hearts; test: Experiments on Langendorff hearts (coronary flowthrough, inotropism, frequency); conditions: Cavia porcellus, read-out: flowthrough, percentage change with regard to the initial value
Description: After reaching the stationary state in the 30th minute, the hearts were each perfused with 50 ml. tyrode solution with a content of test substance of, in each case, 25 μg./ml. Each test substance was tested on 3-6 hearts.
In each case, there was measured the inotropism, the flowthrough and the frequency, whereby the values given in Table I are average values of the percentage changes in comparison with the initial values.

mongrel cats = test: Inotropic and heart-circulatory effectiveness on narcotised cats, intravenous; type: in vivo, cat; conditions: 6 animals; for blood pressure before / dp/dt (inotropism) before / heart frequency before: before administration
narcotised guinea pigs = test: Blood pressure experiments on guinea pigs, i.v.; type: in vivo, guinea pig; conditions: for blood pressure before: before administration
[2] = Acute toxicity, intravenous, mice; type: in vivo; conditions: mouse, in vivo; intravenous, within 24 hours; read-out: Evaluated LD50-range
female NMRI-albino mice = test: Acute toxicity, intravenous, mice; type: in vivo; conditions: within 24 hours

With O=[N+]([O-])O[C@H]1CO[C@H]2[C@@H]1OC[C@@H]2NCC(O)COc1cccc2ccccc12 (stereo partly drawn) [Example 54, 5-[2-Hydroxy-3-(1-naphthyloxy)-propylamino]-5-desoxy-1.4;3.6-dianhydro-L-iditol 2-nitrate] the activation at 25 µg/mL [1] was 274%, the blood pressure before (mongrel cats; 0.25 mg/kg i.v.) was 115.2 mm.Hg and the “dp/dt (inotropism) before” value (mongrel cats; 0.25 mg/kg i.v.) was 8783 mm.Hg/sec. For the same compound, the heart frequency before (mongrel cats; 0.25 mg/kg i.v.) was 188.7 min⁻¹, the “blood pressure WD” value (mongrel cats; 0.25 mg/kg i.v.) was 1.9 min and the blood pressure after (mongrel cats; 0.25 mg/kg i.v.) was 103.8 mm.Hg. For the same compound, the “blood pressure Δ” value (mongrel cats; 0.25 mg/kg i.v.) was -11.4 mm.Hg, the “dp/dt (inotropism) after” value (mongrel cats; 0.25 mg/kg i.v.) was 8150 mm.Hg/sec and the “dp/dt (inotropism) Δ” value (mongrel cats; 0.25 mg/kg i.v.) was -633 mm.Hg/sec. For the same compound, the “dp/dt WD” value (mongrel cats; 0.25 mg/kg i.v.) was 3.9 min, the heart frequency after (mongrel cats; 0.25 mg/kg i.v.) was 187.7 min⁻¹ and the “heart frequency Δ” value (mongrel cats; 0.25 mg/kg i.v.) was -1.0 min⁻¹. The “blood pressure WD” value (mongrel cats; 0.50 mg/kg i.v.) was 3.2 min, the blood pressure after (mongrel cats; 0.50 mg/kg i.v.) was 101.8 mm.Hg and the “blood pressure Δ” value (mongrel cats; 0.50 mg/kg i.v.) was -15.9 mm.Hg. For the same compound, the “dp/dt (inotropism) after” value (mongrel cats; 0.50 mg/kg i.v.) was 6833 mm.Hg/sec, the “dp/dt (inotropism) Δ” value (mongrel cats; 0.50 mg/kg i.v.) was -1934 mm.Hg/sec and the “dp/dt WD” value (mongrel cats; 0.50 mg/kg i.v.) was 7.6 min. For the same compound, the heart frequency after (mongrel cats; 0.50 mg/kg i.v.) was 186.7 min⁻¹, the “heart frequency Δ” value (mongrel cats; 0.50 mg/kg i.v.) was -0.7 min⁻¹ and the “blood pressure WD” value (mongrel cats; 1.00 mg/kg i.v.) was 5.6 min. The blood pressure after (mongrel cats; 1.00 mg/kg i.v.) was 91.0 mm.Hg, the “blood pressure Δ” value (mongrel cats; 1.00 mg/kg i.v.) was -27.8 mm.Hg and the “dp/dt (inotropism) after” value (mongrel cats; 1.00 mg/kg i.v.) was 5050 mm.Hg/sec. The “dp/dt (inotropism) Δ” value (mongrel cats; 1.00 mg/kg i.v.) was -3283 mm.Hg/sec, the “dp/dt WD” value (mongrel cats; 1.00 mg/kg i.v.) was 15.2 min and the heart frequency after (mongrel cats; 1.00 mg/kg i.v.) was 172.0 min⁻¹. The “heart frequency Δ” value (mongrel cats; 1.00 mg/kg i.v.) was -12.0 min⁻¹, the “blood pressure WD” value (mongrel cats; 2.50 mg/kg i.v.) was 6.4 min and the blood pressure after (mongrel cats; 2.50 mg/kg i.v.) was 78.5 mm.Hg. For the same compound, the “blood pressure Δ” value (mongrel cats; 2.50 mg/kg i.v.) was -44.8 mm.Hg, the “dp/dt (inotropism) after” value (mongrel cats; 2.50 mg/kg i.v.) was 2817 mm.Hg/sec and the “dp/dt (inotropism) Δ” value (mongrel cats; 2.50 mg/kg i.v.) was -5183 mm.Hg/sec. The “dp/dt WD” value (mongrel cats; 2.50 mg/kg i.v.) was > 10 min, the heart frequency after (mongrel cats; 2.50 mg/kg i.v.) was 158.3 min⁻¹ and the “heart frequency Δ” value (mongrel cats; 2.50 mg/kg i.v.) was -20.0 min⁻¹. The blood pressure after (narcotised guinea pigs; 0.25 mg/kg i.v.) was 62.25 ± 8.05 mm.Hg, the “blood pressure Δ” value (narcotised guinea pigs; 0.25 mg/kg i.v.) was -4.75 mm.Hg and the blood pressure before (narcotised guinea pigs; 0.25 mg/kg i.v.) was 67.00 ± 4.51 mm.Hg. The blood pressure after (narcotised guinea pigs; 1.00 mg/kg i.v.) was 56.50 ± 4.97 mm.Hg, the “blood pressure Δ” value (narcotised guinea pigs; 1.00 mg/kg i.v.) was -10.75 mm.Hg and the blood pressure after (narcotised guinea pigs; 2.50 mg/kg i.v.) was 44.75 ± 4.50 mm.Hg. For the same compound, the “blood pressure Δ” value (narcotised guinea pigs; 2.50 mg/kg i.v.) was -23.75 mm.Hg.

For CN(CCCc1ccccc1)[C@H]1CO[C@H]2[C@@H]1OC[C@@H]2O[N+](=O)[O-] [Example 21, 5-[N-Methyl-N-(3-phenylpropyl)-amino]-5-desoxy-1.4;3.6-dianhydro-L-iditol 2-nitrate], the activation at 25 µg/mL [1] was 117%, the LD50 at 24 h [2] was 50 to 100 mg/kg and the Frequency of death (female NMRI-albino mice; 50 mg/kg i.v.) was 0/3. For the same compound, the Frequency of death (female NMRI-albino mice; 100 mg/kg i.v.) was 3/3 and the Frequency of death (female NMRI-albino mice; 200 mg/kg i.v.) was 6/6.

With CN(Cc1ccccc1)[C@H]1CO[C@H]2[C@@H]1OC[C@@H]2O[N+](=O)[O-] [Example 19, 5-(N-Benzyl-N-methylamino)-5-desoxy-1.4;3.6-dianhydro-L-iditol 2-nitrate] the activation at 25 µg/mL [1] was 100%, the LD50 at 24 h [2] was 100 to 200 mg/kg and the Frequency of death (female NMRI-albino mice; 100 mg/kg i.v.) was 0/3. The Frequency of death (female NMRI-albino mice; 200 mg/kg i.v.) was 6/6.

For C=CCc1ccccc1OCC(O)CN[C@H]1CO[C@H]2[C@@H]1OC[C@@H]2O[N+](=O)[O-] (stereo partly drawn) [Example 49, 5-[2-Hydroxy-3-(2-allylphenoxy)-propylamino]-5-desoxy-1.4;3.6-dianhydro-L-iditol 2-nitrate], the activation at 25 µg/mL [1] was 191%, the blood pressure before (mongrel cats; 0.25 mg/kg i.v.) was 116.6 mm.Hg and the “dp/dt (inotropism) before” value (mongrel cats; 0.25 mg/kg i.v.) was 7840 mm.Hg/sec. For the same compound, the heart frequency before (mongrel cats; 0.25 mg/kg i.v.) was 200.4 min⁻¹, the “blood pressure WD” value (mongrel cats; 0.25 mg/kg i.v.) was 2.8 min and the blood pressure after (mongrel cats; 0.25 mg/kg i.v.) was 113.6 mm.Hg. For the same compound, the “blood pressure Δ” value (mongrel cats; 0.25 mg/kg i.v.) was -3.0 mm.Hg, the “dp/dt (inotropism) after” value (mongrel cats; 0.25 mg/kg i.v.) was 7360 mm.Hg/sec and the “dp/dt (inotropism) Δ” value (mongrel cats; 0.25 mg/kg i.v.) was -480 mm.Hg/sec. The “dp/dt WD” value (mongrel cats; 0.25 mg/kg i.v.) was 3.1 min, the heart frequency after (mongrel cats; 0.25 mg/kg i.v.) was 201.2 min⁻¹ and the “heart frequency Δ” value (mongrel cats; 0.25 mg/kg i.v.) was “+0.8 min^-1”. For the same compound, the “blood pressure WD” value (mongrel cats; 0.50 mg/kg i.v.) was 3.7 min, the blood pressure after (mongrel cats; 0.50 mg/kg i.v.) was 110.6 mm.Hg and the “blood pressure Δ” value (mongrel cats; 0.50 mg/kg i.v.) was -9.2 mm.Hg. For the same compound, the “dp/dt (inotropism) after” value (mongrel cats; 0.50 mg/kg i.v.) was 6540 mm.Hg/sec, the “dp/dt (inotropism) Δ” value (mongrel cats; 0.50 mg/kg i.v.) was -1060 mm.Hg/sec and the “dp/dt WD” value (mongrel cats; 0.50 mg/kg i.v.) was 14.0 min. For the same compound, the heart frequency after (mongrel cats; 0.50 mg/kg i.v.) was 202.0 min⁻¹, the “heart frequency Δ” value (mongrel cats; 0.50 mg/kg i.v.) was “+2.0 min^-1” and the “blood pressure WD” value (mongrel cats; 1.00 mg/kg i.v.) was 11.6 min. For the same compound, the blood pressure after (mongrel cats; 1.00 mg/kg i.v.) was 105.8 mm.Hg, the “blood pressure Δ” value (mongrel cats; 1.00 mg/kg i.v.) was -16.8 mm.Hg and the “dp/dt (inotropism) after” value (mongrel cats; 1.00 mg/kg i.v.) was 4680 mm.Hg/sec. The “dp/dt (inotropism) Δ” value (mongrel cats; 1.00 mg/kg i.v.) was -2260 mm.Hg/sec, the “dp/dt WD” value (mongrel cats; 1.00 mg/kg i.v.) was > 40 min and the heart frequency after (mongrel cats; 1.00 mg/kg i.v.) was 188.4 min⁻¹. For the same compound, the “heart frequency Δ” value (mongrel cats; 1.00 mg/kg i.v.) was -5.6 min⁻¹, the “blood pressure WD” value (mongrel cats; 2.50 mg/kg i.v.) was > 10 min and the blood pressure after (mongrel cats; 2.50 mg/kg i.v.) was 86.6 mm.Hg. For the same compound, the “blood pressure Δ” value (mongrel cats; 2.50 mg/kg i.v.) was -35.0 mm.Hg, the “dp/dt (inotropism) after” value (mongrel cats; 2.50 mg/kg i.v.) was 3780 mm.Hg/sec and the “dp/dt (inotropism) Δ” value (mongrel cats; 2.50 mg/kg i.v.) was -2900 mm.Hg/sec. For the same compound, the “dp/dt WD” value (mongrel cats; 2.50 mg/kg i.v.) was > 10 min, the heart frequency after (mongrel cats; 2.50 mg/kg i.v.) was 170.4 min⁻¹ and the “heart frequency Δ” value (mongrel cats; 2.50 mg/kg i.v.) was -20.8 min⁻¹. The blood pressure after (narcotised guinea pigs; 0.25 mg/kg i.v.) was 43.50 ± 3.38 mm.Hg, the “blood pressure Δ” value (narcotised guinea pigs; 0.25 mg/kg i.v.) was -2.25 mm.Hg and the blood pressure before (narcotised guinea pigs; 0.25 mg/kg i.v.) was 45.75 ± 2.53 mm.Hg. The blood pressure after (narcotised guinea pigs; 1.00 mg/kg i.v.) was 30.25 ± 1.70 mm.Hg, the “blood pressure Δ” value (narcotised guinea pigs; 1.00 mg/kg i.v.) was -12.75 mm.Hg and the blood pressure after (narcotised guinea pigs; 2.50 mg/kg i.v.) was 20.25 ± 1.03 mm.Hg. The “blood pressure Δ” value (narcotised guinea pigs; 2.50 mg/kg i.v.) was -22.50 mm.Hg.

For O=[N+]([O-])O[C@H]1CO[C@H]2[C@@H]1OC[C@@H]2NCCOc1ccccc1 [Example 35, 5-(2-Phenoxyethylamino)-5-desoxy-1.4;3.6-dianhydro-L-iditol 2-nitrate], the activation at 25 µg/mL [1] was 34%, the LD50 at 24 h [2] was ≥ 100 mg/kg and the Frequency of death (female NMRI-albino mice; 100 mg/kg i.v.) was 2/6. For the same compound, the Frequency of death (female NMRI-albino mice; 200 mg/kg i.v.) was 3/3.

In the case of O=[N+]([O-])O[C@H]1CO[C@H]2[C@@H]1OC[C@@H]2NCc1ccccc1 [Example 25, 5-Benzylamino-5-desoxy-1.4;3.6-dianhydro-L-iditol 2-nitrate], the activation at 25 µg/mL [1] is reported as 47.8%, the LD50 at 24 h [2] is reported as 100 to 200 mg/kg and the Frequency of death (female NMRI-albino mice; 100 mg/kg i.v.) is reported as 0/3. For the same compound, the Frequency of death (female NMRI-albino mice; 200 mg/kg i.v.) was 6/6.
